Results reported in publication PMC6934184, “Selective DNA-PKcs inhibition extends the therapeutic index of localized radiotherapy and chemotherapy” (The Journal of Clinical Investigation, 2019).

Molecular target: T1, CDK1/cyclin B (Homo sapiens, UniProt P06493)
T1 construct: purchased Thermo Fisher Scientific (Life Technologies) SelectScreen
Test: SelectScreen Z'LYTE
Type: biochemical
Method in brief: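 SelectScreen broad panel; activity (Z'LYTE, Adapta) plus binding formats. ATP: Km app for CSF1R Z'LYTE; 10 for CAMK1 Adapta. Readout = % per kinase.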

T1 sequence (P06493 whole entry): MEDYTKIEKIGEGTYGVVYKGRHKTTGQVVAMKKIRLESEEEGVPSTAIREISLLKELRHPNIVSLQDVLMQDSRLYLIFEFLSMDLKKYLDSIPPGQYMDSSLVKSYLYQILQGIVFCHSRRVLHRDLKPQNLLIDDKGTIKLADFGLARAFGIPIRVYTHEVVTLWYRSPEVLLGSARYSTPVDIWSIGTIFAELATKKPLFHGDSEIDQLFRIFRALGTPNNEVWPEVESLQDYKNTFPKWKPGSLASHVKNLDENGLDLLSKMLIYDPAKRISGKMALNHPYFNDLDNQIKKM
T1 sequence (P14635 whole entry partner): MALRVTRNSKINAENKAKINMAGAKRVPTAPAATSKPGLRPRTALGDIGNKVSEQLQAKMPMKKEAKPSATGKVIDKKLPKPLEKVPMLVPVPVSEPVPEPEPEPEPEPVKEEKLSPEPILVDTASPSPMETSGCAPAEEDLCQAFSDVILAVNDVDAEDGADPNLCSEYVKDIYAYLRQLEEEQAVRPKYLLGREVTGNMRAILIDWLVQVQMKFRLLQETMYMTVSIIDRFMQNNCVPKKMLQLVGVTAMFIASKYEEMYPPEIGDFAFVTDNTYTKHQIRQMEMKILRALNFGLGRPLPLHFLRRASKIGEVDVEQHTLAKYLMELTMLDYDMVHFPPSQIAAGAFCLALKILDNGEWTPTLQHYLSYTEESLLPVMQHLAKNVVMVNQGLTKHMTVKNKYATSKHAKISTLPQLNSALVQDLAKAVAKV

How did the inhibition at 1 µM turn out when `CN(C(=O)CN1CCOCC1)c1ccc2sc3c(-c4cccc5c(=O)cc(N6CC7CCC(C6)O7)oc45)cccc3c2c1` [NU5455] was run?
Its inhibition at 1 µM is 1.6%.
